{"source": "patent US20060140885A1", "about": "“Method of reducing oral tissue inflammation using magnolia extract” (priority 2004, published 2006)", "data": [{"system": "S. mutans", "assay": "Minimal Inhibitory Concentration (MIC) in vitro test against S. mutans", "assay_type": "cell-based", "excerpt": "The compositions of the present invention comprise an extract of magnolia. As referred to here, such an “extract” of magnolia is an extract from dried cortex, or bark, of a plant from the Magnoliaceae family, such as Magnolia officinalis, (hereinafter “magnolia”) or a synthetic or semi-synthetic equivalent of such an extract or an active component or compound thereof. […] It should be noted that any plant from the Magnoliaceae family is suitable for the present invention and may be used in alternate embodiments, preferably such that the extract comprises an antimicrobially effective concentration of a compound selected from the group consisting of magnolol, honokiol, tetrahydromagnolol, tetrahydrohonokiol, and mixtures thereof.", "values": [{"smiles": "C=CCc1ccc(O)c(-c2ccc(O)c(CC=C)c2)c1", "note": "[honokiol]", "bactericidal properties against S. mutans (MIC test)": "bactericidal properties"}, {"smiles": "C=CCc1ccc(O)c(-c2cc(CC=C)ccc2O)c1", "note": "[magnolol]", "bactericidal properties against S. mutans (MIC test)": "bactericidal properties"}, {"smiles": "CCCc1ccc(O)c(-c2ccc(O)c(CCC)c2)c1", "note": "[tetrahydrohonokiol]", "bactericidal properties against S. mutans (MIC test)": "bactericidal properties"}, {"smiles": "CCCc1ccc(O)c(-c2cc(CCC)ccc2O)c1", "note": "[tetrahydromagnolol]", "bactericidal properties against S. mutans (MIC test)": "bactericidal properties"}]}]}
